From patent US11708348B2, “Protease inhibitors for treatment of coronavirus infections” (The Scripps Research Institute, priority 2021, dated 2023)

Each compound was assayed on SARS-CoV-2 strain USA-WA1/2020 (assay: microbe, parasite or virus in culture). Conditions: Severe acute respiratory syndrome coronavirus 2, HeLa-ACE2, 24 h, HeLa-ACE2 cells, SARS-CoV-2 infection, 24 h; class symbols; read-out: EC50, uM (Hela).
Assay type: cell-based
Compound `CC(C)C[C@H](NC(=O)c1c[nH]c2cccnc12)C(=O)N[C@@H](C[C@@H]1CCNC1=O)C(=O)COC(F)(F)F` [Compound 263, N-((S)-4-methyl-1-oxo-1-(((S)-3-oxo-1-((S)-2-oxopyrrolidin-3-yl)-4-(trifluoromethoxy)butan-2-yl)amino)pentan-2-yl)-1H-pyrrolo[3,2-b]pyridine-3-carboxamide] has an EC50 of 0.2 to 0.5 µM.
With `Cc1cc(Cl)ccc1NC(=O)C(=O)N[C@@H](CC(C)C)C(=O)N[C@@H](C[C@@H]1CCNC1=O)C(=O)COc1c(F)c(F)cc(F)c1F` [Compound 77, N1-(4-chloro-2-methylphenyl)-N2-((S)-4-methyl-1-oxo-1-(((S)-3-oxo-1-((S)-2-oxopyrrolidin-3-yl)-4-(2,3,5,6-tetrafluorophenoxy)butan-2-yl)amino)pentan-2-yl)oxalamide] the EC50 was < 0.05 µM.
With `CC(C)C[C@H](NC(=O)[C@H]1CCCO1)C(=O)N[C@@H](C[C@@H]1CCNC1=O)C(=O)COc1c(F)c(F)cc(F)c1F` [Compound 26, (R)-N-((S)-4-methyl-1-oxo-1-(((S)-3-oxo-1-((S)-2-oxopyrrolidin-3-yl)-4-(2,3,5,6-tetrafluorophenoxy)butan-2-yl)amino)pentan-2-yl)tetrahydrofuran-2-carboxamide] the EC50 was 0.2 to 0.5 µM.
`CC1(NC(=O)C(=O)N2C[C@@H]3CCC[C@@H]3[C@H]2C(=O)N[C@@H](C[C@@H]2CCNC2=O)C(=O)COC(F)(F)F)CC1` [Compound 270, (1S,3aR,6aS)-2-(2-((l-methylcyclopropyl)-amino)-2-oxoacetyl)-N-((S)-3-oxo-1-((S)-2-oxopyrrolidin-3-yl)-4-(trifluoromethoxy)butan-2-yl)octahydrocyclo-penta[c]pyrrole-1-carboxamide] gave an EC50 of 0.05 to 0.2 µM.
`O=C1NCC[C@H]1C[C@H](NC(=O)[C@@H]1CC2(CC2)CN1C(=O)C(O)c1ccc(F)c(F)c1)C(=O)COC(F)(F)F` (stereo partly drawn) [Compound 400, (6S)-5-(2-(3,4-difluorophenyl)-2-hydroxyacetyl)-N-((S)-3-oxo-1-((S)-2-oxopyrrolidin-3-yl)-4-(trifluoromethoxy)butan-2-yl)-5-azaspiro[2.4]heptane-6-carboxamide] was tested, and the EC50 was 0.05 to 0.2 µM.
For `CC(C)(C)C[C@H](NC(=O)C(=O)Nc1ccccc1C(C)(C)C)C(=O)N[C@@H](C[C@@H]1CCNC1=O)C(=O)COC(F)(F)F` [Compound 173, N1-(2-(tert-butyl)phenyl)-N2-((S)-4,4-dimethyl-1-oxo-1-(((S)-3-oxo-1-((S)-2-oxopyrrolidin-3-yl)-4-(trifluoromethoxy)butan-2-yl)amino)pentan-2-yl)oxalamide], the EC50 was < 0.05 µM.
`CC(C)[C@@H](O)C(=O)N1C[C@H]2[C@@H]([C@H]1C(=O)N[C@@H](C[C@@H]1CCNC1=O)C(=O)COC(F)(F)F)C2(C)C` [Compound 357, (1R,2S,5S)-3-((R)-2-hydroxy-3-methylbutanoyl)-6,6-dimethyl-N-((S)-3-oxo-1-((S)-2-oxopyrrolidin-3-yl)-4-(trifluoromethoxy)butan-2-yl)-3-azabicyclo-[3.1.0]hexane-2-carboxamide] gave an EC50 of 0.05 to 0.2 µM.
For `CC(C)(C)C[C@H](NC(=O)C(=O)Nc1ccccc1F)C(=O)N[C@@H](C[C@@H]1CCNC1=O)C(=O)COc1c(F)c(F)cc(F)c1F` [Compound 130, N1-((S)-4,4-dimethyl-1-oxo-1-(((S)-3-oxo-1-((S)-2-oxopyrrolidin-3-yl)-4-(2,3,5,6-tetrafluorophenoxy)butan-2-yl)amino)pentan-2-yl)-N2-(2-fluorophenyl)oxalamide], the EC50 was < 0.05 µM.

Same assay, conditions: Severe acute respiratory syndrome coronavirus 2, HeLa-ACE2, 24 h, HeLa-ACE2 cells, SARS-CoV-2 infection, 24 h; read-out: EC50, uM (Hela)
With `O=C(N[C@@H](CC1CCC1)C(=O)N[C@@H](C[C@@H]1CCNC1=O)C(=O)COC(F)(F)F)C(=O)NC12CC(F)(C1)C2` [Compound 565, N1-((S)-3-cyclobutyl-1-oxo-1-(((S)-3-oxo-1-((S)-2-oxopyrrolidin-3-yl)-4-(trifluoromethoxy)butan-2-yl)amino)propan-2-yl)-N2-(3-fluorobicyclo[1.1.1]-pentan-1-yl)oxalamide] the EC50 was < 0.05 µM.
For `O=C1NCC[C@H]1C[C@H](NC(=O)[C@@H]1CC2(CC2)CN1C(=O)COc1ccc(OC(F)(F)F)cc1)C(=O)COC(F)(F)F` [Compound 773, (S)-N-((S)-3-oxo-1-((S)-2-oxopyrrolidin-3-yl)-4-(trifluoromethoxy)butan-2-yl)-5-(2-(4-(trifluoromethoxy)phenoxy)acetyl)-5-azaspiro[2.4]heptane-6-carboxamide], the EC50 was < 0.05 µM.
`CC(C)(NC(=O)C(=O)N1C[C@@H]2CCC[C@@H]2[C@H]1C(=O)N[C@@H](C[C@@H]1CCNC1=O)C(=O)COC(F)(F)F)C(F)F` [Compound 554, (1S,3aR,6aS)-2-(2-((1,1-difluoro-2-methylpropan-2-yl)amino)-2-oxoacetyl)-N-((S)-3-oxo-1-((S)-2-oxopyrrolidin-3-yl)-4-(trifluoromethoxy)butan-2-yl)octahydro-cyclopenta[c]pyrrole-1-carboxamide] gave an EC50 of 0.05 to 0.2 µM.
Compound `CNC(=O)C(=O)N1CC2(CC2)C[C@H]1C(=O)N[C@@H](C[C@@H]1CCNC1=O)C(=O)COC(F)(F)F` [Compound 676, (S)-5-(2-(methylamino)-2-oxoacetyl)-N-((S)-3-oxo-1-((S)-2-oxopyrrolidin-3-yl)-4-(trifluoromethoxy)butan-2-yl)-5-azaspiro[2.4]heptane-6-carboxamide] has an EC50 of 0.05 to 0.2 µM.
In the case of `CC1(C)[C@@H]2[C@@H](C(=O)N[C@@H](C[C@@H]3CCNC3=O)C(=O)COC(F)(F)F)N(C(=O)C(=O)NC3CC(F)(F)C3)C[C@@H]21` [Compound 536, (1R,2S,5S)-3-(2-((3,3-difluorocyclo-butyl)amino)-2-oxoacetyl)-6,6-dimethyl-N-((S)-3-oxo-1-((S)-2-oxopyrrolidin-3-yl)-4-(trifluoromethoxy)butan-2-yl)-3-azabicyclo-[3.1.0]hexane-2-carboxamide], the EC50 is reported as 0.05 to 0.2 µM.
`CC(C)(C)c1cccc(C(C)(C)C(=O)N2CC3(CC3)C[C@H]2C(=O)N[C@@H](C[C@@H]2CCNC2=O)C(=O)COC(F)(F)F)c1` [Compound 455, (S)-5-(2-(3-(tert-butyl)phenyl)-2-methylpropanoyl)-N-((S)-3-oxo-1-((S)-2-oxopyrrolidin-3-yl)-4-(trifluoromethoxy)butan-2-yl)-5-azaspiro[2.4]heptane-6-carboxamide] showed an EC50 of 0.05 to 0.2 µM.
With `CC(C)(C)C[C@@H](O)C(=O)N1C[C@H]2[C@@H]([C@H]1C(=O)N[C@@H](C[C@@H]1CCNC1=O)C(=O)COC(F)(F)F)C2(C)C` [Compound 454, (1R,2S,5S)-3-((R)-2-hydroxy-4,4-dimethylpentanoyl)-6,6-dimethyl-N-((S)-3-oxo-1-((S)-2-oxopyrrolidin-3-yl)-4-(trifluoromethoxy)butan-2-yl)-3-azabicyclo[3.1.0]-hexane-2-carboxamide] the EC50 was < 0.05 µM.
Work on `O=C(NCC(F)F)C(=O)N1C[C@@H]2CCC[C@@H]2[C@H]1C(=O)N[C@@H](C[C@@H]1CCNC1=O)C(=O)COC(F)(F)F` [Compound 519, (1S,3aR,6aS)-2-(2-((2,2-difluoroethyl)amino)-2-oxoacetyl)-N-((S)-3-oxo-1-((S)-2-oxopyrrolidin-3-yl)-4-(trifluoromethoxy)butan-2-yl)octahydrocyclo-penta[c]pyrrole-1-carboxamide] yielded an EC50 of 0.2 to 0.5 µM.
